From patent US8269000B2, “Substituted pyrimidine and triazine compounds” (Gruenenthal GmbH, priority 2008, dated 2012)

The compounds below were run against T1, rat B1R (Rattus norvegicus, UniProt P97583) (assay: FLIPR Ca2+ functional study on bradykinin receptor 1 (rB1R CHO K1 cells)). Details: % inhibition rat B1R at 10 μM.
T1 construct: expressed in transfected cells; host or cells: CHO K1 cells
T1 sequence (P97583 1-337): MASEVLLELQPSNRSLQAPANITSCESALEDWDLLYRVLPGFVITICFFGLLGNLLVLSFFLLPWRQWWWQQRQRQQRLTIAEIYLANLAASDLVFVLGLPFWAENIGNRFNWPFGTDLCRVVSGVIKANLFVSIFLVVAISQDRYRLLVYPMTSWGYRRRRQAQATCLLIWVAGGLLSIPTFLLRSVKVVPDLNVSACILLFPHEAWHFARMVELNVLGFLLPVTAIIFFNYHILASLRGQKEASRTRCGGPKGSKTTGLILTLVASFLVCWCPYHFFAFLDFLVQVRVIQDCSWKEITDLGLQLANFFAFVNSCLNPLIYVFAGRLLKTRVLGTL
Assay type: cell-based
Procedure, shortened: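 Antagonism was calculated as % of maximal inhibition of the Ca2+ rise triggered by agonist at EC80 (Lys-Des-Arg9-bradykinin for hB1R, Des-Arg9-bradykinin for rB1R), added 10-20 min after test compound (10 μM or serial dilutions for IC50) to Fluo-4-loaded transfected CHO K1 cells on FLIPR. Duplicates or triplicates, ≥2 independent runs.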
COc1cc(C)c(S(=O)(=O)N2CCCCC2COc2ccnc(N3CCC(CCN4CCCCC4)CC3)n2)c(C)c1 (stereo not shown) [H_CC-022] was tested, and the “% inh. (rat B1R) 10 μM” value was 77%.
COc1cc(C)c(S(=O)(=O)N2CCC[C@@H]2COc2ccnc(N3CCCN(Cc4ccccn4)CC3)n2)c(C)c1 [H_CC-043, 1-[4-[[(2R)-1-[(4-methoxy-2,6-dimethyl-phenyl)sulfonyl]-pyrrolidin-2-yl]-methoxy]-pyrimidin-2-yl]-4-(pyridin-2-yl-methyl)-[1,4]diazepam] was tested, and the “% inh. (rat B1R) 10 μM” value was 80%.
With COc1cc(C)c(S(=O)(=O)N(C)C(COc2nccc(N3CCN(C4CCN(C)CC4)CC3)n2)c2ccccc2)c(C)c1 (stereo not shown) [G_CC-059, 4-methoxy-N,2,6-trimethyl-N-[2-[[4-[4-(1-methyl-4-pipendinyl)-1-piperazinyl]-2-pyrimidinyl]oxy]-1-phenylethyl]benzenesulfonamide] the “% inh. (rat B1R) 10 μM” value was 98%.
“(1S,5R)-8-[4-[[(2S)-1-[(4-methoxy-2,6-dimethyl-phenyl)sulfonyl]-pyrrolidin-2-yl]-methoxy]-pyrimidin-2-yl]-3-pyridin-4-yloxy-8-azabicyclo[3.2.1]octane [H_CC-052]” was tested, and the “% inh. (rat B1R) 10 μM” value was 72%.
With COc1cc(C)c(S(=O)(=O)N2CCC[C@@H]2COc2nccc(N3CCC(CNC(=O)c4ccncc4)(N4CCN(C)CC4)CC3)n2)c(C)c1 [G_CC-054, N-[[1-[2-[[(2R)-1-(4-methoxy-2,6-dimethylphenyl)sulfonyl-2-pyrrolidinyl)methoxy]-4-pyrimidinyl]-4-(4-methyl-1-piperazinyl)-4-pipendinyl]methyl]-4-pyridinecarboxamide] the “% inh. (rat B1R) 10 μM” value was 80%.

Same assay, conditions: % inhibition rat B1R at 10 μM, 10 µM
With COc1cc(C)c(S(=O)(=O)N(C)CCOc2nccc(N(C)CCN3CCC(c4ccccc4)(N(C)C)CC3)n2)c(C)c1 [G_CC-098, N-[2-[4-[2-(4-dimethylamino-4-phenyl-piperidin-1-yl)-ethyl-methyl-amino]-pyrimidin-2-yl]oxy-ethyl]-4-methoxy-N,2,6-trimethyl-benzenesulfonic acid amide] the “% inh. (rat B1R) 10 μM” value was 79%.

Same assay, conditions: CHO-K1, % inhibition rat B1R at 10 μM, read-out: % inh. (rat B1R) 10 μM
For COc1cc(C)c(S(=O)(=O)N(C)CCOc2nccc(N3CCC4(CC3)OCc3ccccc34)n2)c(C)c1 [G_CC-029, 4-methoxy-N,2,6-trimethyl-N-[2-[[4-(1′-spiro[1H-isobenzofuran-3,4′-piperidin]yl)-2-pyrimidinyl]oxy]ethyl]benzenesulfonamide], the inhibition at 10 µM was 52%.
In the case of COc1cc(C)c(S(=O)(=O)N(C)C(COc2nccc(N3CCCC3Cc3ccccn3)n2)c2ccccc2)c(C)c1 (stereo not shown) [G_CC-133, 4-methoxy-N,2,6-trimethyl-N-[1-phenyl-2-[4-[2-(pyridin-2-yl-methyl)-pyrrolidin-1-yl]-pyrimidin-2-yl]oxy-ethyl]benzenesulfonic acid amide], the inhibition at 10 µM is reported as 78%.
COc1cc(C)c(S(=O)(=O)N2CCCC(Oc3ccnc(N4CCC(CCN5CCCCC5)CC4)n3)C2)c(C)c1 (stereo not shown) [H_CC-041, 4-[[1-(4-methoxy-2,6-dimethylphenyl)sulfonyl-3-piperidinyl]oxy]-2-[4-[2-(1-piperidyl)ethyl]-1-piperidinyl]pyrimidine] was tested, and the inhibition at 10 µM was 48%.
CCCCC1(N(C)C)CCN(CCN(C)c2nccc(OC[C@@H]3CCCN3S(=O)(=O)c3c(C)cc(OC)cc3C)n2)CC1 [H_CC-056, 2-(4-butyl-4-dimethylamino-piperidin-1-yl)-ethyl-[4-[[(2S)-1-[(4-methoxy-2,6-dimethyl-phenyl)sulfonyl]-pyrrolidin-2-yl]-methoxy]-pyrimidin-2-yl]-methyl-amine] gave an inhibition at 10 µM of 98%.
In the case of COc1cc(C)c(S(=O)(=O)N2CCC[C@H]2COc2nccc(N3CCC(OCCN4CCCC4)(c4cccc(F)c4)CC3)n2)c(C)c1 [G_CC-086, 4-[4-(3-fluorophenyl)-4-(2-pyrrolidin-1-yl-ethoxy)-piperidin-1-yl]-2-[[(2S)-1-[(4-methoxy-2,6-dimethyl-phenyl)sulfonyl]-pyrrolidin-2-yl]-methoxy]-pyrimidine], the inhibition at 10 µM is reported as 105%.
COc1cc(C)c(S(=O)(=O)N(C)CCOc2ccnc(N3CCC4(CCN(Cc5ccc(F)cc5)C4=O)CC3)n2)c(C)c1 [H_CC-039, N-[2-[[2-[3-[(4-fluorophenyl)methyl]-4-oxo-3,8-diazaspiro[4.5]decan-8-yl]-4-pyrimidinyl]oxy]ethyl]-4-methoxy-N,2,6-trimethylbenzenesulfonamide] showed an inhibition at 10 µM of 50%.
Compound COc1cc(C)c(S(=O)(=O)N2CCC[C@H]2COc2ccnc(N3CCC(c4cccs4)(N(C)C)CC3)n2)c(C)c1 [H_CC-086, [1-[4-[[(2S)-1-[(4-methoxy-2,6-dimethyl-phenyl)sulfonyl]-pyrrolidin-2-yl]-methoxy]-pyrimidin-2-yl]-4-thiophen-2-yl-piperidin-4-yl]-dimethyl-amine] has an inhibition at 10 µM of 66%.
Work on COc1cc(C)c(S(=O)(=O)N2CCCC(Oc3nccc(N4CC5CC4CN5Cc4ccncc4)n3)C2)c(C)c1 (stereo not shown) [G_CC-057, 5-[2-[[1-(4-methoxy-2,6-dimethylphenyl)sulfonyl-3-piperidinyl]oxy]-4-pyrimidinyl]-2-(4-pyridylmethyl)-2,5-diazabicyclo[2.2.1]heptane] yielded an inhibition at 10 µM of 90%.
COc1cc(C)c(S(=O)(=O)N2CC(Oc3nccc(N4CCN(CC5CCN(C)CC5)CC4)n3)C2)c(C)c1 [G_CC-077, 2-[1-[(4-methoxy-2,6-dimethyl-phenyl)sulfonyl]-azetidin-3-yl]oxy-4-[4-[(1-methyl-piperidin-4-yl)methyl]-piperazin-1-yl]-pyrimidine] gave an inhibition at 10 µM of 92%.
Compound COc1cc(C)c(S(=O)(=O)N2CCC[C@H]2COc2nccc(N3CCC4(CC3)C(=O)NCC4c3cccc(C(F)(F)F)c3)n2)c(C)c1 (stereo partly drawn) [G_CC-049, 8-[2-[[(2S)-1-(4-methoxy-2,6-dimethylphenyl)sulfonyl-2-pyrrolidinyl]methoxy]-4-pyrimidinyl]-1-[3-(trifluoromethyl)phenyl]-3,8-diazaspiro[4.5]decan-4-one] has an inhibition at 10 µM of 72%.
For COc1cc(C)c(S(=O)(=O)N(C)CCOc2nccc(N3CCC(c4ccccc4)(N(C)C)CC3)n2)c(C)c1 [G_CC-117, N-[2-[4-(4-dimethylamino-4-phenyl-piperidin-1-yl)-pyrimidin-2-yl]oxy-ethyl]-4-methoxy-N,2,6-trimethyl-benzenesulfonic acid amide], the inhibition at 10 µM was 56%.
Compound COc1cc(C)c(S(=O)(=O)N2CCCCC2COc2ccnc(N3CCCN(Cc4ccccn4)CC3)n2)c(C)c1 (stereo not shown) [H_CC-042, 1-[4-[[1-[(4-methoxy-2,6-dimethyl-phenyl)sulfonyl]-piperidin-2-yl]-methoxy]-pyrimidin-2-yl]-4-(pyridin-2-yl-methyl)-[1,4]diazepan] has an inhibition at 10 µM of 61%.
In the case of COc1cc(C)c(S(=O)(=O)N2c3ccccc3C[C@H]2COc2ccnc(N(C)CCN3CCC(c4ccccc4)(N4CCCC4)CC3)n2)c(C)c1 [H_CC-072, [4-[[(2S)-1-[(4-methoxy-2,6-dimethyl-phenyl)sulfonyl]-2,3-dihydro-1H-indol-2-yl]-methoxy]-pyrimidin-2-yl]-methyl-[2-(4-phenyl-4-pyrrolidin-1-yl-piperidin-1-yl)-ethyl]-amine], the inhibition at 10 µM is reported as 83%.
For CCCCC1(N(C)C)CCN(c2ccnc(OC[C@@H]3CCCN3S(=O)(=O)c3c(C)cc(OC)cc3C)n2)CC1 [G_CC-087, [4-butyl-1-[2-[[(2S)-1-[(4-methoxy-2,6-dimethyl-phenyl)sulfonyl]-pyrrolidin-2-yl]-methoxy]-pyrimidin-4-yl]-piperidin-4-yl]-dimethyl-amine], the inhibition at 10 µM was 101%.
COc1cc(C)c(S(=O)(=O)N(C)C(COc2nccc(N3CC4CC3CN4Cc3ccc(F)cc3)n2)c2ccccc2)c(C)c1 (stereo not shown) [G_CC-065, N-[2-[[4-[2-[(4-fluorophenyl)methyl]-2,5-diazabicyclo[2.2.1]heptan-5-yl]-2-pyrimidinyl]oxy]-1-phenylethyl]-4-methoxy-N,2,6-trimethylbenzenesulfonamide] was tested, and the inhibition at 10 µM was 58%.
For CCCCC1(N(C)C)CCN(CCN(C)c2ccnc(OC[C@@H]3Cc4ccccc4N3S(=O)(=O)c3c(C)cc(OC)cc3C)n2)CC1 [G_CC-097, 2-(4-butyl-4-dimethylamino-piperidin-1-yl)-ethyl-[2-[[(2S)-1-[(4-methoxy-2,6-dimethyl-phenyl)sulfonyl]-2,3-dihydro-1H-indol-2-yl]-methoxy]-pyrimidin-4-yl]-methyl-amine], the inhibition at 10 µM was 101%.
For COc1cc(C)c(S(=O)(=O)N2CCCCC2COc2nccc(N3CCC(O)(c4cccnc4)CC3)n2)c(C)c1 (stereo not shown) [G_CC-067, 1-[2-[[1-(4-methoxy-2,6-dimethylphenyl)sulfonyl-2-piperidinyl]methoxy]-4-pyrimidinyl]-4-(3-pyridyl)-4-piperidinol], the inhibition at 10 µM was 104%.
COc1cc(C)c(S(=O)(=O)N2CCCCC2COc2nccc(N3CCC(O)(c4ccccn4)CC3)n2)c(C)c1 (stereo not shown) [G_CC-082, 1-[2-[[1-[(4-methoxy-2,6-dimethyl-phenyl)sulfonyl]-piperidin-2-yl]-methoxy]-pyrimidin-4-yl]-4-pyridin-2-yl-piperidin-4-ol] was tested, and the inhibition at 10 µM was 73%.
With COc1cc(C)c(S(=O)(=O)N2CCCCC2COc2nccc(N3CCC4(CC3)C(=O)NCN4c3ccccc3)n2)c(C)c1 (stereo not shown) [G_CC-025, 8-[2-[[1-(4-methoxy-2,6-dimethylphenyl)sulfonyl-2-piperidinyl]methoxy]-4-pyrimidinyl]-4-phenyl-2,4,8-triazaspiro[4.5]decan-1-one] the inhibition at 10 µM was 95%.
